Source: ChEMBL document CHEMBL4190322, “Structure-based development of novel triazoles and related thiazolotriazoles as anticancer agents and Cdc25A/B phosphatase inhibitors. Synthesis, in vitro biological evaluation, molecular docking and in silico ADME-T studies” (Eur J Med Chem, 2017)
The source made the active and inactive calls. The rule behind the calls is not given here.

Assays:
Assay type in all cases: functional
[1] = test system: HT-29; test: Growth inhibition of human HT-29 cells at 10 uM after 48 hrs by SRB assay relative to control; conditions: for inhibition of growth at 10 µM: HT-29, 48 h, read-out: GI
[2] = test system: OVCAR-8; test: Growth inhibition of human OVCAR8 cells at 10 uM after 48 hrs by SRB assay relative to control
[3] = test system: CCRF-CEM; test: Growth inhibition of human CCRF-CEM cells at 10 uM after 48 hrs by SRB assay relative to control; conditions: read-out: GI
[4] = test system: K562; test: Growth inhibition of human K562 cells at 10 uM after 48 hrs by SRB assay relative to control; conditions: K562, 48 h, read-out: GI
[5] = test system: SR; test: Growth inhibition of human SR cells at 10 uM after 48 hrs by SRB assay relative to control; conditions: read-out: GI
[6] = test system: MOLT-4; test: Growth inhibition of human MOLT4 cells at 10 uM after 48 hrs by SRB assay relative to control; conditions: for inhibition of growth at 10 µM: MOLT-4, 48 h, read-out: GI
[7] = test system: RPMI-8226; test: Growth inhibition of human RPMI8226 cells at 10 uM after 48 hrs by SRB assay relative to control; conditions: RPMI-8226, 48 h, read-out: GI
[8] = test system: HL-60; test: Growth inhibition of human HL60 cells at 10 uM after 48 hrs by SRB assay relative to control
[9] = test system: A549; test: Growth inhibition of human A549 cells at 10 uM after 48 hrs by SRB assay relative to control; conditions: for inhibition of growth at 10 µM: A549, 48 h, read-out: GI
[10] = test system: HOP-62; test: Growth inhibition of human HOP62 cells at 10 uM after 48 hrs by SRB assay relative to control; conditions: HOP-62, 48 h, read-out: GI
[11] = test system: HOP-92; test: Growth inhibition of human HOP92 cells at 10 uM after 48 hrs by SRB assay relative to control; conditions: HOP-92, 48 h, read-out: GI
[12] = test system: NCI-H226; test: Growth inhibition of human NCI-H226 cells at 10 uM after 48 hrs by SRB assay relative to control
[13] = test system: NCI-H23; test: Growth inhibition of human NCI-H23 cells at 10 uM after 48 hrs by SRB assay relative to control; conditions: NCI-H23, 48 h, read-out: GI
[14] = test system: NCI-H322M; test: Growth inhibition of human NCI-H322M cells at 10 uM after 48 hrs by SRB assay relative to control
[15] = test system: NCI-H522; test: Growth inhibition of human NCI-H522 cells at 10 uM after 48 hrs by SRB assay relative to control; conditions: NCI-H522, 48 h, read-out: GI
[16] = test system: HCT-116; test: Growth inhibition of human HCT116 cells at 10 uM after 48 hrs by SRB assay relative to control
[17] = test system: KM12; test: Growth inhibition of human KM12 cells at 10 uM after 48 hrs by SRB assay relative to control; conditions: KM12, 48 h, read-out: GI
[18] = test system: SF-268; test: Growth inhibition of human SF268 cells at 10 uM after 48 hrs by SRB assay relative to control
[19] = test system: SNB-19; test: Growth inhibition of human SNB19 cells at 10 uM after 48 hrs by SRB assay relative to control; conditions: SNB-19, 48 h, read-out: GI
[20] = test system: SNB-75; test: Growth inhibition of human SNB75 cells at 10 uM after 48 hrs by SRB assay relative to control; conditions: SNB-75, 48 h, read-out: GI
[21] = test system: U-251; test: Growth inhibition of human U251 cells at 10 uM after 48 hrs by SRB assay relative to control; conditions: U-251, 48 h, read-out: GI
[22] = test system: LOX IMVI; test: Growth inhibition of human LOXIMVI cells at 10 uM after 48 hrs by SRB assay relative to control; conditions: read-out: GI
[23] = test system: SK-MEL-2; test: Growth inhibition of human SK-MEL-2 cells at 10 uM after 48 hrs by SRB assay relative to control; conditions: for inhibition of growth at 10 µM: SK-MEL-2, 48 h, read-out: GI
[24] = test system: SK-MEL-5; test: Growth inhibition of human SK-MEL-5 cells at 10 uM after 48 hrs by SRB assay relative to control; conditions: for inhibition of growth at 10 µM: SK-MEL-5, 48 h, read-out: GI
[25] = test system: UACC-257; test: Growth inhibition of human UACC257 cells at 10 uM after 48 hrs by SRB assay relative to control
[26] = test system: UACC-62; test: Growth inhibition of human UACC62 cells at 10 uM after 48 hrs by SRB assay relative to control
[27] = test system: OVCAR-3; test: Growth inhibition of human OVCAR3 cells at 10 uM after 48 hrs by SRB assay relative to control
[28] = test system: OVCAR-4; test: Growth inhibition of human OVCAR4 cells at 10 uM after 48 hrs by SRB assay relative to control; conditions: for inhibition of growth at 10 µM: OVCAR-4, 48 h, read-out: GI
[29] = test system: NCI/ADR-RES; test: Growth inhibition of human NCI/ADR-RES cells at 10 uM after 48 hrs by SRB assay relative to control; conditions: read-out: GI
[30] = test system: SK-OV-3; test: Growth inhibition of human SKOV3 cells at 10 uM after 48 hrs by SRB assay relative to control; conditions: for inhibition of growth at 10 µM: SK-OV-3, 48 h, read-out: GI
[31] = test system: 786-0; test: Growth inhibition of human 786-0 cells at 10 uM after 48 hrs by SRB assay relative to control
[32] = test system: A498; test: Growth inhibition of human A498 cells at 10 uM after 48 hrs by SRB assay relative to control; conditions: for inhibition of growth at 10 µM: A498, 48 h, read-out: GI
[33] = test system: CAKI-1; test: Growth inhibition of human Caki1 cells at 10 uM after 48 hrs by SRB assay relative to control; conditions: CAKI-1, 48 h, read-out: GI
[34] = test system: RXF 393; test: Growth inhibition of human RXF393 cells at 10 uM after 48 hrs by SRB assay relative to control
[35] = test system: UO-31; test: Growth inhibition of human UO31 cells at 10 uM after 48 hrs by SRB assay relative to control; conditions: UO-31, 48 h, read-out: GI
[36] = test system: PC-3; test: Growth inhibition of human PC3 cells at 10 uM after 48 hrs by SRB assay relative to control; conditions: PC-3, 48 h, read-out: GI
[37] = test system: MCF7; test: Growth inhibition of human MCF7 cells at 10 uM after 48 hrs by SRB assay relative to control; conditions: MCF7, 48 h, read-out: GI
[38] = test system: Hs-578T; test: Growth inhibition of human Hs 578T cells at 10 uM after 48 hrs by SRB assay relative to control
[39] = test system: MDA-MB-468; test: Growth inhibition of human MDA-MB-468 cells at 10 uM after 48 hrs by SRB assay relative to control
[40] = test system: Malme-3M; test: Growth inhibition of human MALME-3M cells at 10 uM after 48 hrs by SRB assay relative to control

Structure (SMILES): COc1ccc(Cc2nnc3sc(SCC(=O)Nc4ccc(Cl)cc4)nn23)cc1
- growth inhibition (GI) [1]: inactive
- growth inhibition (GI) [2]: inactive
- inhibition of growth at 10 µM [3]: 9.02%
- inhibition of growth at 10 µM [4]: 2.76%
- inhibition of growth at 10 µM [5]: 7.04%
- growth inhibition (GI) [6]: inactive
- inhibition of growth at 10 µM [7]: 7.47%
- growth inhibition (GI) [8]: inactive
- growth inhibition (GI) [9]: inactive
- inhibition of growth at 10 µM [10]: 4.5%
- inhibition of growth at 10 µM [11]: 20.3%
- growth inhibition (GI) [12]: inactive
- inhibition of growth at 10 µM [13]: 9.4%
- growth inhibition (GI) [14]: inactive
- inhibition of growth at 10 µM [15]: 8.35%
- growth inhibition (GI) [16]: inactive
- inhibition of growth at 10 µM [17]: 5.75%
- growth inhibition (GI) [18]: inactive
- inhibition of growth at 10 µM [19]: 10.4%
- inhibition of growth at 10 µM [20]: 20.2%
- inhibition of growth at 10 µM [21]: 4.46%
- inhibition of growth at 10 µM [22]: 8%
- growth inhibition (GI) [23]: inactive
- growth inhibition (GI) [24]: inactive
- growth inhibition (GI) [25]: inactive
- growth inhibition (GI) [26]: inactive
- growth inhibition (GI) [27]: inactive
- inhibition of growth at 10 µM [28]: 5.49%
- inhibition of growth at 10 µM [29]: 2.54%
- inhibition of growth at 10 µM [30]: 1.64%
- growth inhibition (GI) [31]: inactive
- inhibition of growth at 10 µM [32]: 19.6%
- inhibition of growth at 10 µM [33]: 5.77%
- growth inhibition (GI) [34]: inactive
- inhibition of growth at 10 µM [35]: 10.2%
- inhibition of growth at 10 µM [36]: 14.8%
- inhibition of growth at 10 µM [37]: 10%
- growth inhibition (GI) [38]: inactive
- growth inhibition (GI) [39]: inactive
- growth inhibition (GI) [40]: inactive

Structure (SMILES): CCSc1nnc(Cc2ccc(OC)cc2)n1-c1ccccc1
- inhibition of growth at 10 µM [1]: 8.24%
- growth inhibition (GI) [2]: inactive
- inhibition of growth at 10 µM [3]: 7.61%
- inhibition of growth at 10 µM [4]: 14.1%
- inhibition of growth at 10 µM [5]: 3.31%
- inhibition of growth at 10 µM [6]: 10%
- inhibition of growth at 10 µM [7]: 13.5%
- growth inhibition (GI) [8]: inactive
- inhibition of growth at 10 µM [9]: 5.86%
- inhibition of growth at 10 µM [10]: 2.28%
- inhibition of growth at 10 µM [11]: 8.26%
- inhibition of growth at 10 µM ([12]; NCI-H226, 48 h, read-out: GI): 5.31%
- inhibition of growth at 10 µM [13]: 6.16%
- growth inhibition (GI) [14]: inactive
- inhibition of growth at 10 µM [15]: 22.4%
- growth inhibition (GI) [16]: inactive
- inhibition of growth at 10 µM [17]: 3.07%
- inhibition of growth at 10 µM ([18]; SF-268, 48 h, read-out: GI): 6.15%
- inhibition of growth at 10 µM [19]: 14.5%
- inhibition of growth at 10 µM [20]: 10%
- inhibition of growth at 10 µM [21]: 13%
- inhibition of growth at 10 µM [22]: 4.89%
- inhibition of growth at 10 µM [23]: 5%
- inhibition of growth at 10 µM [24]: 4.7%
- inhibition of growth at 10 µM ([25]; UACC-257, 48 h, read-out: GI): 3.16%
- growth inhibition (GI) [26]: inactive
- growth inhibition (GI) [27]: inactive
- inhibition of growth at 10 µM [28]: 7.48%
- inhibition of growth at 10 µM [29]: 6.88%
- growth inhibition (GI) [30]: inactive
- growth inhibition (GI) [31]: inactive
- inhibition of growth at 10 µM [32]: 22.1%
- inhibition of growth at 10 µM [33]: 11.9%
- growth inhibition (GI) [34]: inactive
- inhibition of growth at 10 µM [35]: 20%
- inhibition of growth at 10 µM [36]: 14.3%
- inhibition of growth at 10 µM [37]: 5.53%
- growth inhibition (GI) [38]: inactive
- inhibition of growth at 10 µM ([39]; MDA-MB-468, 48 h, read-out: GI): 10.7%
- inhibition of growth at 10 µM ([40]; read-out: GI): 9.23%

Structure (SMILES): COc1ccc(Cc2nnc3sc(SCC(=O)Nc4ccc(C)cc4)nn23)cc1
- inhibition of growth at 10 µM [1]: 1.67%
- growth inhibition (GI) [2]: inactive
- inhibition of growth at 10 µM [3]: 7.47%
- inhibition of growth at 10 µM [4]: 7.25%
- inhibition of growth at 10 µM [5]: 7.23%
- inhibition of growth at 10 µM [6]: 2.19%
- inhibition of growth at 10 µM [7]: 1.58%
- growth inhibition (GI) [8]: inactive
- inhibition of growth at 10 µM [9]: 2.5%
- inhibition of growth at 10 µM [10]: 2%
- inhibition of growth at 10 µM [11]: 23.8%
- growth inhibition (GI) [12]: inactive
- inhibition of growth at 10 µM [13]: 3.12%
- inhibition of growth at 10 µM ([14]; read-out: GI): 3.14%
- inhibition of growth at 10 µM [15]: 12.2%
- growth inhibition (GI) [16]: inactive
- inhibition of growth at 10 µM [17]: 3.51%
- growth inhibition (GI) [18]: inactive
- inhibition of growth at 10 µM [19]: 3.61%
- inhibition of growth at 10 µM [20]: 12%
- inhibition of growth at 10 µM [21]: 6.5%
- inhibition of growth at 10 µM [22]: 16.7%
- inhibition of growth at 10 µM [23]: 14.8%
- inhibition of growth at 10 µM [24]: 1.64%
- growth inhibition (GI) [25]: inactive
- growth inhibition (GI) [26]: inactive
- growth inhibition (GI) [27]: inactive
- growth inhibition (GI) [28]: inactive
- inhibition of growth at 10 µM [29]: 3.81%
- inhibition of growth at 10 µM [30]: 4.35%
- growth inhibition (GI) [31]: inactive
- growth inhibition (GI) [32]: inactive
- inhibition of growth at 10 µM [33]: 11.9%
- inhibition of growth at 10 µM ([34]; RXF 393, 48 h, read-out: GI): 1.65%
- inhibition of growth at 10 µM [35]: 13.6%
- inhibition of growth at 10 µM [36]: 11.5%
- inhibition of growth at 10 µM [37]: 5.79%
- growth inhibition (GI) [38]: inactive
- growth inhibition (GI) [39]: inactive
- growth inhibition (GI) [40]: inactive
